Our source for the IC50 values is patent US20240116947A1, “PYRIDO OXAZINE DERIVATIVES AS ALK5 INHIBITORS” (CHIESI FARMACEUTICI S.P.A., priority 2020, published 2024).

For this test, the target named is human ALK5 (Homo sapiens (Human), UniProt P36897). Kind of test: ADP-GLO Kinases assay, inhibition of ALK5 enzymatic activity. Type of test: biochemical. To be noted: Table 4; potency bins; purified recombinant human ALK5, ADP-Glo, 25° C.; read-out: ALK5 IC50. On the procedure:
The enzymatic activity of compounds of the present invention was monitored measuring the formation of ADP using the ADP-GLO Kinases assay. Following the incubation of the purified enzyme, a substrate and ATP, the produced ADP was converted into ATP, which in turn was converted into light by Ultra-Glo Luciferase. The luminescent signal positively correlated with ADP amount and kinase activity. Briefly, the kinase reaction was performed by incubating 2.6 nM of the purified, commercially available human ALK5 (recombinant TGF β1 N-term GST-tagged, 80-end), a final concentration of TGFβ1 peptide 94.5 μM (Promega, T36-58) and ultra-pure ATP (Promega V915B). […] All reactions/incubations were performed at 25° C. Compound and ALK5 kinase were mixed and incubated for 15 mins. Reactions were initiated by addition of ATP at a final concentration in the assay of 0.83 μM. After an incubation of 150 min, the reaction was stopped, and ADP production detected with ADP-Glo kit according to manufacturer's indications. The assay was performed in 384-well format and was validated using a selection of reference compounds that was tested in 11 point concentration-response curve.

human ALK5, sequence (P36897 80-503 limits assumed): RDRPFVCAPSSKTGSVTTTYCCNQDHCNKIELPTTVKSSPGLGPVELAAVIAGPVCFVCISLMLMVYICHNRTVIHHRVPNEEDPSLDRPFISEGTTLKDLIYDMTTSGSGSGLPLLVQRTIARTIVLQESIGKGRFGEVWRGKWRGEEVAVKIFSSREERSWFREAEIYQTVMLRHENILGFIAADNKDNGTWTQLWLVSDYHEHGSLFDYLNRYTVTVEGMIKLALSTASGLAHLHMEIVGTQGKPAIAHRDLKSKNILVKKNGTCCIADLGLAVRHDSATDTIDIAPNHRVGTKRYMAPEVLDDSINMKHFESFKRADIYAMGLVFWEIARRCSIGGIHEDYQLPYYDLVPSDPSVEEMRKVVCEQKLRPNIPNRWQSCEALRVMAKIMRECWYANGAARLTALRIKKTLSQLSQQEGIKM

Take `COC(=O)CC1CN(CCC(=O)Nc2cc(N3CCOc4cnc(-c5cc(Cl)ccc5F)cc43)ccn2)CCN1C` (stereo not shown) [Example 47, Methyl 2-{4-[2-({4-[7-(5-chloro-2-fluorophenyl)-1H,2H,3H-pyrido[3,4-b][1,4]oxazin-1-yl]pyridin-2-yl}carbamoyl)ethyl]-1-methylpiperazin-2-yl}acetate]: the half-inhibitory concentration (IC50) is < 1 nM.
In the case of `CN1CCN(CC(=O)Nc2cc(N3CCOc4cnc(-c5cc(Cl)ccc5F)cc43)ccn2)CC1` [Example 43, N-{4-[7-(5-chloro-2-fluorophenyl)-1H,2H,3H-pyrido[3,4-b][1,4]oxazin-1-yl]pyridin-2-yl}-2-(4-methylpiperazin-1-yl)acetamide] it was < 1 nM; in that of `Nc1cc(N2CCOc3cnc(-c4cccc(Cl)c4)cc32)ccn1` [Example 5, 4-[7-(3-chlorophenyl)-1H,2H,3H-pyrido[3,4-b][1,4]oxazin-1-yl]pyridin-2-amine], 5 to 10 nM.
As to `Nc1cc(N2CCOc3cnc(-c4cc(C5CC5)ccc4F)cc32)ccn1` [Example 12, 4-[7-(5-cyclopropyl-2-fluorophenyl)-1H,2H,3H-pyrido[3,4-b][1,4]oxazin-1-yl]pyridin-2-amine], the IC50 was in the range of 1 to 5 nM.
